According to patent US9833490B1, “Drug combination for the treatment of infertility and its preparation methods and applications” (SICHUAN SHANZE BIOTECH.,LTD., priority 2017, dated 2017):

Target: xanthine oxidase (Homo sapiens, UniProt P47989)
Assay: Xanthine oxidase inhibitory activity
Type: biochemical
Settings: relative to allopurinol

xanthine oxidase, sequence (P47989 whole entry, species assumed): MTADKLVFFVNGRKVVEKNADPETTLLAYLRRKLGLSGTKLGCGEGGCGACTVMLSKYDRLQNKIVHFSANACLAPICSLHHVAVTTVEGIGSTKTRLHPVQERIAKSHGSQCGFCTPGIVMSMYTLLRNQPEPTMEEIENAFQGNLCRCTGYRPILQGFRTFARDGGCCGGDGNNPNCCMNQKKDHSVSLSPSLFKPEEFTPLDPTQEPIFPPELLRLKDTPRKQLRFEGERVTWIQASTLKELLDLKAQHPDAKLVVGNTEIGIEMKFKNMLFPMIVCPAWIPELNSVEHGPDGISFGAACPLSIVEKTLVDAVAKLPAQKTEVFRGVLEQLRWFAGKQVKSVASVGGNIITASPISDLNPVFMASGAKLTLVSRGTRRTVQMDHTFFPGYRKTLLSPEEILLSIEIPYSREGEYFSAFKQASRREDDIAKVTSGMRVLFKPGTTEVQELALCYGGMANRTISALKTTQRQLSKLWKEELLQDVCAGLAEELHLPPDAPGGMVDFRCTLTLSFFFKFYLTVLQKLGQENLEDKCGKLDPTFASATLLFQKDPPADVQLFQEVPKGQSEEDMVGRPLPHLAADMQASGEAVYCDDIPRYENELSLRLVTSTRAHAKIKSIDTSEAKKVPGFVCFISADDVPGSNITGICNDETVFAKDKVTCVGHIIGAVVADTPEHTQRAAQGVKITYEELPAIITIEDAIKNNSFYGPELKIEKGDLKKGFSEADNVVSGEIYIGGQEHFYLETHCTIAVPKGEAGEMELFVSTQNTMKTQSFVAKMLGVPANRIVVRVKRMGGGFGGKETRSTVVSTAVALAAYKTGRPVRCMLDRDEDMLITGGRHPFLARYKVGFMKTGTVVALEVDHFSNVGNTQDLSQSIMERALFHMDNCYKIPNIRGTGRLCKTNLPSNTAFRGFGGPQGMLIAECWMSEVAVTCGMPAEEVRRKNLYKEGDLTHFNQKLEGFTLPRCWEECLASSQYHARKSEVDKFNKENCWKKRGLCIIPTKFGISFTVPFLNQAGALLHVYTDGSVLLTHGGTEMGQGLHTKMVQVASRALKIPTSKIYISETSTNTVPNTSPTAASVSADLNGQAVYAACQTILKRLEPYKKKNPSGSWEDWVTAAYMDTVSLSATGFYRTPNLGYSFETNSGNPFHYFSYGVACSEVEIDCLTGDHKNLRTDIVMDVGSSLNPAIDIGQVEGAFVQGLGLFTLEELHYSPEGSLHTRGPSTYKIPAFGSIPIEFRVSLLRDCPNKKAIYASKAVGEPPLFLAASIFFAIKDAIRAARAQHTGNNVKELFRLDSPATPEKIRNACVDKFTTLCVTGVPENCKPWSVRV

O=c1c(O)c(-c2ccc(O)c(O)c2)oc2c(O)c(O)ccc12 [melanoxetin, 3,7,8,3′,4′-pentahydroxyflavone]
xanthine oxidase inhibitory activity, fold higher than allopurinol: 17 fold

O=C(/C=C/c1ccc(O)c(O)c1)c1ccc(O)c(O)c1O [okanin, 3,4,2′,3′,4′-pentahydroxy trans-chalcone]
xanthine oxidase inhibitory activity, fold higher than allopurinol: 63 fold
